This is an account of results in US7511144B2, “Reverse hydroxamic acid derivatives” (Kaken Pharmaceutical Co., Ltd., priority 2001, dated 2009).

What all share (format): biochemical
In assay [1] the target is T1, Human MMP17 (Homo sapiens, UniProt Q9ULZ9).
T1 construct: purchased Calbiochem 475940
T1 sequence (Q9ULZ9 126-300 limits assumed): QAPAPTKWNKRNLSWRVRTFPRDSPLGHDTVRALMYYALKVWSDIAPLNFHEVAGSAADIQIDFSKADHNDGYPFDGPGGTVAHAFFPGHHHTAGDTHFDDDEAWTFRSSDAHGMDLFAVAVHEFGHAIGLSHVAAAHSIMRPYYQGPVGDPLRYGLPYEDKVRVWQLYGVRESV
Put plainly: MMP17 inhibition test. The settings on record: concentration required for 50% inhibition of enzyme activity; read-out: IC50 value MMP-17.

The target of assay [2] is T2, Human MMP13 (Homo sapiens, UniProt P45452).
T2 construct: purchased Chemicon CC068
Put plainly: MMP13 inhibition experiment. Particulars: concentration required for 50% inhibition of enzyme activity; read-out: IC50 value MMP-13.
Method: Human MMP13 (Chemicon #CC068) in amount of 90 μL (200 ng) was activated by mixing with 10 μL of 10 mM APMA, followed by reaction for 1 hour at 37° C. This enzyme solution in amount of 0.6 μL was diluted to 90 μL with the assay buffer A, which was added to 90 μL of 20 μM fluorescent substrate (Dnp-Pro-Cha-Gly-Cys(Me)-His-Ala-Lys(Nma)-NH2) prepared in the assay buffer B, followed by reaction for 4 hours at 37° C.

The target of assay [3] is T3, TACE (Homo sapiens, UniProt P78536).
T3 construct: made in house; host or cells: mammalian cells or insect cells
T3 sequence (P78536 215-824): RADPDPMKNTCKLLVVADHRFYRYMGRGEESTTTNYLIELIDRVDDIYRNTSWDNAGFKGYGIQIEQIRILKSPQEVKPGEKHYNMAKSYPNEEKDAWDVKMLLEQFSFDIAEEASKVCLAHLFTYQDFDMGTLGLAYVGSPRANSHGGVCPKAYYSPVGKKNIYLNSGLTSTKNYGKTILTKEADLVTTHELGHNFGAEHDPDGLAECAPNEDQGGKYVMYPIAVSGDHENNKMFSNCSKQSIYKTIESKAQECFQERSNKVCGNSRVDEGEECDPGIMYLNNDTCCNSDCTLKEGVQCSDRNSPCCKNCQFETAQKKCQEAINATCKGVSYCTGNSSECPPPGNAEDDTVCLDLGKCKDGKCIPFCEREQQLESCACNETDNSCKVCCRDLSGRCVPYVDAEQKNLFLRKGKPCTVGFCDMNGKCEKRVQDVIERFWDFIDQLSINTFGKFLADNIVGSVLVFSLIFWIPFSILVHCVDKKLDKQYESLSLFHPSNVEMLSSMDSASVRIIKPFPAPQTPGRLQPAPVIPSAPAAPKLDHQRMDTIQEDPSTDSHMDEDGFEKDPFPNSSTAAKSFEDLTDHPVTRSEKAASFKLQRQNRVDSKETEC
The assay can be described thus: TACE inhibition experiment (in vitro).

Assay [4] has as its target T4, Human MMP1 (Homo sapiens, UniProt P03956).
T4 construct: purchased Calbiochem 444208
T4 sequence (P03956 100-469): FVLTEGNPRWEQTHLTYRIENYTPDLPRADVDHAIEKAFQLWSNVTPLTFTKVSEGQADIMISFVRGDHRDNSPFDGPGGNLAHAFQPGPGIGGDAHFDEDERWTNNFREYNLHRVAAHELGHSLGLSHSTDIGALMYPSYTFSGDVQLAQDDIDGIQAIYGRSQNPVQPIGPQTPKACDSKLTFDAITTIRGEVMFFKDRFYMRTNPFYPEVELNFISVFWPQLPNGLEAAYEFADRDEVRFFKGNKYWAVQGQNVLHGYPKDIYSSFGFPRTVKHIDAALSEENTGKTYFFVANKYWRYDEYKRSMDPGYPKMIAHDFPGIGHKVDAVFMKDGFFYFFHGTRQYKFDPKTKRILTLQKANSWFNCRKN
The assay can be described thus: MMP1 inhibition experiment. Particulars: read-out: IC50 value MMP-1.
Method: (§1) The methods of inhibition experiments carried out for various MMPs are described below.
This enzyme solution in amount of 10 μL was diluted to 90 μL with the assay buffer A, which was added to 90 μL of 20 μM fluorescent substrate (Dnp-Pro-Cha(β-cyclohexylalanyl)-Gly-Cys(Me)-His-Ala-Lys(Nma)-NH2) prepared in the assay buffer B, followed by reaction for 5 hours at 37° C.

Assay [5] concerns the target T5, Human MMP3 (Homo sapiens, UniProt P08254).
T5 construct: purchased Calbiochem 444217
The assay can be described thus: MMP3 inhibition experiment. The settings on record: concentration required for 50% inhibition of enzyme activity; read-out: IC50 value MMP-3. The gist of the method:
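Fluorescence-quenched substrate NFF-3 (MOCAc/Dnp peptide, 20 μM as prepared) cleaved by 5 ng human MMP3 over 5 hours at 37° C, with inhibition measured from substrate fluorescence.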

Assay [6] addresses T6, Human MMP2 (Homo sapiens, UniProt P08253).
T6 construct: purchased Calbiochem 444213
T6 sequence (P08253 110-660): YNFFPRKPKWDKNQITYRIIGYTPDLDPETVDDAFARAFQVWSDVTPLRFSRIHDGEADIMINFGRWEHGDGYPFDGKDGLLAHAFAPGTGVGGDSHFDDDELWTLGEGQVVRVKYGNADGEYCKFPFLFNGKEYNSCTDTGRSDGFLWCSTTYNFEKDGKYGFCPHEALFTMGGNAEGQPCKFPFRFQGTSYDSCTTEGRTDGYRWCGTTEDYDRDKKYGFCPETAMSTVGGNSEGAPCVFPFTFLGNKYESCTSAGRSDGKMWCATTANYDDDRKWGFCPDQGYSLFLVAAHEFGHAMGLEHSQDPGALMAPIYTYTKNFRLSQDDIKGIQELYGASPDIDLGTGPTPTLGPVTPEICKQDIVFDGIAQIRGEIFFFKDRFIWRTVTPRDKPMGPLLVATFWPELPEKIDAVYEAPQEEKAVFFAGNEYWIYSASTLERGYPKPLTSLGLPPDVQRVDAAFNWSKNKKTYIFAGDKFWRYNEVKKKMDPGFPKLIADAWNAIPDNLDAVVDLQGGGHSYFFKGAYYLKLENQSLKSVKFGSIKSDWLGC
Put plainly: MMP2 inhibition experiment. Particulars: concentration required for 50% inhibition of enzyme activity; read-out: IC50 value MMP-2.
Method: This enzyme solution in amount of 10 μL was diluted to 90 μL with the assay buffer A, which was added to 90 μL of 20 μM fluorescent substrate (MOCAc((7-methoxycoumarin-4-yl)acetyl)-Pro-Leu-Gly-Leu-A2pr(Dnp)-Ala-Arg-NH2, Peptide Institute, Inc., #3163-v) prepared in the assay buffer B, followed by reaction for 5 hours at 37° C.

Assay [7] has as its target T7, Human MMP9 (Homo sapiens, UniProt P14780).
T7 construct: purchased Calbiochem 444231
Put plainly: MMP9 inhibition experiment. The settings on record: read-out: IC50 value MMP-9.
Method: as §1
This enzyme solution in amount of 1 μL was diluted to 90 μL with the assay buffer A, which was added to 90 μL of 20 μM fluorescent substrate (Dnp-Pro-Cha-Gly-Cys(Me)-His-Ala-Lys(Nma)-NH2) prepared in the assay buffer B, followed by reaction for 4 hours at 37° C.

The target of assay [8] is T8, Human MMP8 (Homo sapiens, UniProt P22894).
T8 construct: purchased Calbiochem 444229
T8 sequence (P22894 101-467): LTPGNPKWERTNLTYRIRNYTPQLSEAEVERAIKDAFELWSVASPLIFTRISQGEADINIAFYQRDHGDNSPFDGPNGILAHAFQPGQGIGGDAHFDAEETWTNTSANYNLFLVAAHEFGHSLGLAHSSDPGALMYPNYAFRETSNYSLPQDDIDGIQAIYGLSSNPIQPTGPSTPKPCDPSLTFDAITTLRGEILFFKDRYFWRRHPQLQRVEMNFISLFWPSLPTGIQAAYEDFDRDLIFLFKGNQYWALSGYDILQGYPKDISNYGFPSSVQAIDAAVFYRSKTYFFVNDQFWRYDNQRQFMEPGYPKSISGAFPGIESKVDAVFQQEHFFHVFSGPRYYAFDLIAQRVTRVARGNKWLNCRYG
The assay can be described thus: MMP8 inhibition experiment. The settings on record: concentration required for 50% inhibition of enzyme activity; read-out: IC50 value MMP-8. The method, boiled down: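 Human MMP8 activated with APMA for 1 h at 37° C, then incubated with fluorogenic peptide MOCAc-Pro-Leu-Gly-Leu-A2pr(Dnp)-Ala-Arg-NH2 (20 μM stock) for 5 hours at 37° C. Fluorescent substrate cleavage serves as read-out.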

The target in assay [9] is T9, Human MMP14 (Homo sapiens, UniProt P50281).
T9 construct: purchased Biogenesis or Calbiochem 5980-1461 or 475935
Put plainly: MMP14 inhibition experiment. The settings on record: concentration required for 50% inhibition of enzyme activity; read-out: IC50 value MMP-14. The gist of the method: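 Fluorescence assay: substrate Dnp-Pro-Cha-Gly-Cys(Me)-His-Ala-Lys(Nma)-NH2 (20 μM before equal-volume mixing) incubated at 37° C for 5 hours with 4 ng human MMP14.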

Each structure is given as a SMILES string. Some results are limits rather than exact numbers.

A word on the IC50: it is the point on the concentration scale where inhibition reaches its midpoint.

T7 sequence (P14780 107-707 limits assumed): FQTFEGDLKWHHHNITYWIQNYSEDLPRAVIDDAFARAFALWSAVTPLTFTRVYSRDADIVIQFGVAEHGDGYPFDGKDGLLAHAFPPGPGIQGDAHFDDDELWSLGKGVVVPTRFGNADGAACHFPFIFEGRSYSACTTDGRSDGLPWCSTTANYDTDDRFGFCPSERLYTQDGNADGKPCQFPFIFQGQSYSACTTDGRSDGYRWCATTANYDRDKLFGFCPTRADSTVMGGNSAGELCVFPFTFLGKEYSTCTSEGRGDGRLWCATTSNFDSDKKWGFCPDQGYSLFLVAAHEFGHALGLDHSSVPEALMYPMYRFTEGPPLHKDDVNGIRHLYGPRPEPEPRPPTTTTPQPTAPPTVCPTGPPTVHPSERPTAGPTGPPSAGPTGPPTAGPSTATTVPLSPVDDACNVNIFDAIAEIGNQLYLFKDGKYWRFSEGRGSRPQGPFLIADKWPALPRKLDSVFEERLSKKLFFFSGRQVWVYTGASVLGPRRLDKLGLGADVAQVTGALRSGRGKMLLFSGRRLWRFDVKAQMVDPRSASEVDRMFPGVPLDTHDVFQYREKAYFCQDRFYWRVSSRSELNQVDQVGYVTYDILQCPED
T5 sequence (P08254 100-272 limits assumed): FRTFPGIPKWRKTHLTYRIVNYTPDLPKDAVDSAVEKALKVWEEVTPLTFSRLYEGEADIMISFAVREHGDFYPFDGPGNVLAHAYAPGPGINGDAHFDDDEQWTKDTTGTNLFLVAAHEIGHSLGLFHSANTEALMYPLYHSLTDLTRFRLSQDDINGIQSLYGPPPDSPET

Take `COCC(=O)N1CCN(CC(CS(=O)(=O)c2ccc(OCc3cc(C)nc4ccccc34)cc2)N(O)C=O)CC1` (stereo not drawn) [Example I-53]: the IC50 in assay [1] is 0.4 µM; in [2], 40 µM; in [3], 0.01 µM; in [4] it was more than 100 µM; in [5], 0.6 µM; in [6], 13 µM. Further, the figures for the IC50 in assay [7], in assay [8] and in assay [9] were more than 100 µM, 25 µM and more than 100 µM, respectively.

As to `COc1ccc(C(=O)N2CCN(CC(CS(=O)(=O)c3ccc(OCc4cc(C)nc5ccccc45)cc3)N(O)C=O)CC2)cc1` (stereo not drawn) [Example I-54], the IC50 in assay [1] is 0.85 µM; in assay [2], 23 µM; in [3] it was 0.008 µM; in assay [4], 70 µM; in [5], 1.2 µM; in [6] it was 12 µM. Further, the concentration for half-maximal inhibition (IC50) in assay [7] was 31 µM; in assay [8], 42 µM; in assay [9], 43 µM.

With `Cc1cc(COc2ccc(S(=O)(=O)CC(CCc3cccnc3)N(O)C=O)cc2)c2ccccc2n1` (stereo not drawn) [Example I-56], the IC50 in [1] worked out at 1.2 µM; in assay [2], 6.4 µM; in [3] it was 0.004 µM; in assay [4], 70 µM; in assay [5], 1 µM; in assay [6], 3.1 µM. Moreover, the IC50 in [7] is 55 µM; in assay [8], 7.2 µM; in assay [9] it was 42 µM.

As to `Cc1ccc(C(C)(CS(=O)(=O)c2ccc(OCc3cc(C)nc4ccccc34)cc2)N(O)C=O)cc1` (stereo not drawn) [Example I-57], the IC50 is 4.6 µM in assay [1]; 33 µM in [2]; 0.012 µM in assay [3]; 42 µM in assay [4]; 6 µM in [5]; more than 100 µM in assay [6]. Further, the IC50 in assay [7] was 60 µM; in assay [8], more than 100 µM; in assay [9] it was 33 µM.

In the case of `Cc1cc(COc2ccc(S(=O)(=O)CC(C3CSC(=O)N3C)N(O)C=O)cc2)c2ccccc2n1` (stereo not drawn) [Example I-58], the IC50 in assay [1] is 0.58 µM; in assay [2] it was 27 µM; in [3] it was 0.0031 µM; in [4], more than 100 µM; in assay [5], 1.9 µM; in assay [6] it was 21 µM. Moreover, the values for the IC50 in assay [7], in assay [8] and in assay [9] were more than 100 µM, 11 µM and more than 100 µM, respectively.

Regarding `COc1ccc(CN2C(=O)SCC2C(CS(=O)(=O)c2ccc(OCc3cc(C)nc4ccccc34)cc2)N(O)C=O)cc1` (stereo not drawn) [Example I-59], the IC50 is 2.6 µM in assay [1]; 35 µM in assay [2]; 0.01 µM in [3]; 54 µM in [4]; 5.6 µM in [5]; 80 µM in assay [6]. The concentration for half-maximal inhibition (IC50) was more than 100 µM in assay [7], 58 µM in [8] and 60 µM in assay [9].

Turning to `Cc1cc(COc2ccc(S(=O)(=O)CC(N(O)C=O)C3(C)CCOCC3)cc2)c2ccccc2n1` (stereo not drawn) [Example I-60, N-hydroxy-N-{2-[4-(2-methylquinolin-4-ylmethoxy)benzenesulfonyl]-1-(4-methyltetrahydropyran-4-yl)ethyl}formamide], the IC50 in [1] was 0.51 µM; in [2] it was 56 µM; in assay [3], 0.0083 µM; in assay [4] it was more than 100 µM; in assay [5], 2.5 µM; in assay [6], 60 µM. For the same molecule, the figures for the IC50 in [7], in [8] and in assay [9] were more than 100 µM, 10 µM and more than 100 µM, respectively.

Consider `Cc1cc(COc2ccc(S(=O)(=O)CC(C=C3CCN(C(=O)OC(C)(C)C)CC3C)N(O)C=O)cc2)c2ccccc2n1` (stereo not drawn) [Example I-61], for which the IC50 in assay [1] worked out at 1.8 µM; in [2], 10 µM; in assay [3] it was 0.0033 µM; in assay [4], 80 µM; in assay [5], 1.5 µM; in assay [6], 5 µM. Also, the IC50 in assay [7] came out at 62 µM; in [8], 24 µM; in assay [9], 54 µM.

As for `CCC(CC)C(=O)N1CCC(=CC(CS(=O)(=O)c2ccc(OCc3cc(C)nc4ccccc34)cc2)N(O)C=O)C(C)C1` (stereo not drawn) [Example I-63], the IC50 amounted to 2.2 µM in assay [1]; 32 µM in assay [2]; 0.002 µM in [3]; 64 µM in [4]; 2.4 µM in assay [5]; 30 µM in assay [6]. The IC50 came to 75 µM in assay [7], 60 µM in assay [8] and 65 µM in assay [9].

Regarding `CCC(CC)C(=O)N1CCC(CC(CS(=O)(=O)c2ccc(OCc3cc(C)nc4ccccc34)cc2)N(O)C=O)C(C)C1` (stereo not drawn) [Example I-64], the IC50 turned out to be 0.58 µM in [1]; 17 µM in assay [2]; 0.0051 µM in assay [3]; 57 µM in assay [4]; 0.7 µM in assay [5]; 9 µM in assay [6]. Further, the IC50 in [7] came out at 58 µM; in assay [8], 17 µM; in [9], 65 µM.

With `Cc1cc(COc2ccc(S(=O)(=O)CC(c3cccnc3C)N(O)C=O)cc2)c2ccccc2n1` (stereo not drawn) [Example I-67], the concentration for half-maximal inhibition (IC50) in assay [1] is 1.4 µM; in [2], 30 µM; in [3], 0.003 µM; in assay [4], more than 100 µM; in assay [5], 2.7 µM; in [6], 20 µM. In addition, the IC50 in assay [7] is more than 100 µM; in assay [8], 18 µM; in [9], 70 µM.

As to `Cc1cc(COc2ccc(S(=O)(=O)CC(C3CCN(C(=O)OC(C)(C)C)CC3)N(O)C=O)cc2)c2ccccc2n1` (stereo not drawn) [Example I-68], the IC50 in assay [1] came to 0.22 µM; in assay [2], 0.53 µM; in [3], 0.023 µM; in assay [4], 80 µM; in [5], 0.5 µM; in [6] it was 1.5 µM. Moreover, the IC50 was 50 µM in assay [7], 8 µM in assay [8] and 40 µM in assay [9].

As for `CC(=O)N1CCC(CC(CS(=O)(=O)c2ccc(OCc3cc(C)nc4ccccc34)cc2)N(O)C=O)CC1` (stereo not drawn) [Example I-69], the 50% inhibitory concentration (IC50) in [1] is 0.45 µM; in assay [2], 13 µM; in assay [3], 0.0053 µM; in assay [4], more than 100 µM; in assay [5], 0.63 µM; in assay [6] it was 9 µM. Also, the IC50 in assay [7] is more than 100 µM; in assay [8] it was 9.8 µM; in assay [9], more than 100 µM.

Consider `Cc1cc(COc2ccc(S(=O)(=O)CC(CC3CCN(S(C)(=O)=O)CC3)N(O)C=O)cc2)c2ccccc2n1` (stereo not drawn) [Example I-70], for which the half-maximal inhibitory concentration (IC50) in [1] is 1.9 µM; in [2], 30 µM; in assay [3] it was 0.011 µM; in assay [4], more than 100 µM; in [5], 1.3 µM; in assay [6], 11 µM. Besides, the IC50 in [7] was more than 100 µM; in assay [8], 22 µM; in assay [9], 92 µM.
